Literature values in US5674533A, “Pharmaceutical composition for the controlled release of moguisteine in a liquid suspension” (Recordati, S.A., Chemical And Pharmaceutical Company, priority 1994, dated 1997).

Columns and labels:
[1] = system: rapidly adapting irritant receptors (RARs); details: peripheral site of action
[2] = for antitussive activity of enantiomers: R(+) vs S(-)
[3] = in humans
[4] = not given; remark: listed apart in the source
[5] = in vivo

## COc1ccccc1OCC1SCCN1C(=O)CC(=O)O (racemic) [active metabolite, (R,S)-2-[(methoxyphenoxy)methyl]-3-carboxyacetyl]-1,3 thiazolidine acid]
After oral or intravenous administration of moguisteine
  presence in biological fluids in measurable quantities: only its active metabolite
oral
  rate of absorption relative to moguisteine: five times slower than moguisteine

## CCOC(=O)CC(=O)N1CCSC1COc1ccccc1OC (racemic) [moguisteine, (R,S)-2-[(2-methoxyphenoxy)methyl-3-ethoxycarbonyl-1-acetyl]-1,3-thiazolidine]
[1]
  interaction with RARs: interacts with the so-called "rapidly adapting irritant receptors" (RARs)
[2]; in vivo
  antitussive potency relative to codeine, dextromethorphan and zipripol: as potent as codeine, dextromethorphan and zipripol
[2]; vs (D,L)-dropropizine
  antitussive potency relative to (D,L)-dropropizine: 3-4 times more potent
[3]
  half-life after administration: less than one hour
[4]
  solubility in aqueous fluids: relatively insoluble in aqueous fluids
Opioid receptors
  action via opioid receptors: does not act via opioid receptors
[5]
  addiction: causes no addiction
  tolerability in high doses relative to codeine or dextromethorphan: better tolerated in high doses than codeine or dextromethorphan

## CCOC(=O)CC(=O)N1CCSC1COc1ccccc1OC (single isomer, unassigned) [R(+) enantiomer]
[2]
  antitussive activity of enantiomers: equivalent antitussive activity

## CCOC(=O)CC(=O)N1CCSC1COc1ccccc1OC (single isomer, unassigned) [S(-) enantiomer]
[2]
  antitussive activity of enantiomers: equivalent antitussive activity

## COc1ccc2c3c1O[C@H]1[C@@H](O)C=C[C@H]4[C@@H](C2)N(C)CC[C@@]341 [Codeine]
[5]
  addiction: potentially causing addiction
